Results: BindingDB's records for patent WO2022081842 (THE BROAD INSTITUTE, INC., 2022)

Tests used:
[1] = molecular target: Histone acetyltransferase KAT6B (Human, UniProt Q8WYB5); test: Kat6b Activity Assay
Source text: Kat6b inhibitory activities of the compounds described in the present invention were quantified using a Fluorescence Resonance Energy Transfer (TR-FRET) assay which measures acetylation of a synthetic, biotinylated Histone-H4-derived peptide by the enzyme.Recombinant human GST-tagged Kat6b protein (431-end, N-terminal GST-tag), purified from Baculovirus- infected insect cells (Sf9), was purchased from SignalChem (#K315-381BG). Histone H4 peptide (amino acids 1-24, […]-VLRD-K(Btn)-amide), which was used as substrate, was synthesized by Biosyntan GmbH, Berlin, Germany. Acetyl Coenzyme A was purchased from Sigma-Aldrich (#A-2056). Kat6b was incubated for 30 mins at 22°C in the presence of different concentrations of test substances (0 μM, and within the range 0.01 - 20 μM) in assay buffer [25 mM Tris/HCl pH 8, 1 mM EGTA, 2.5 mM Glutathion, 0.02% Chicken Albumin, 0.05% Pluronic F127, 25 mM NaCl, 500 nM H4 peptide and 600 nM Acetyl Coenzyme A].The reaction was stopped by addition of Detection Solution (25mM HEPES pH 7.5, 0.1% BSA, 22nM SAXL665 (Cisbio #610SAXLE), 100μM Anacardic Acid (Enzo #ALX-270-381), 1nM Anti-Histone H4 (ACETYL K8) Antibody (ABCAM #AB15823), 0.5 nM Anti-Rabbit IgG Eu (Perkin Elmer #AD0083).The fluorescence emission at 620 nm and 665 nm after excitation at 330-350 nm was measured in a TR-FRET measuring instrument, for instance a Rubystar or a Pherastar (both from BMG Lab Technologies, Offenburg, Germany) or a Viewlux (Perkin-Elmer). The ratio of the emission at 665 nm and at 622 nm was used as indicator of the amount of acetylated peptide.The resulting data (ratio) were normalized, taking 0% inhibition as the mean value of control measurements where all reagents were included. In this case 50 nl DMSO were used instead of compounds. A 100% inhibition corresponded to the mean value of control measurements where all reagents except enzyme were included. IC50 values were determined by regression analysis based on a 4 parameter equation (minimum, maximum, ICM, Hill; Y = Max + (Min - Max) / (1 + (X/ICso) Hill) using the Screener Software (Genedata).

[2] = molecular target: T1, Histone acetyltransferase KAT6A [507-778] (Human, UniProt Q92794); test: Kat6a Activity Assay
T1 construct: 507-778
T1 sequence (Q92794 whole entry): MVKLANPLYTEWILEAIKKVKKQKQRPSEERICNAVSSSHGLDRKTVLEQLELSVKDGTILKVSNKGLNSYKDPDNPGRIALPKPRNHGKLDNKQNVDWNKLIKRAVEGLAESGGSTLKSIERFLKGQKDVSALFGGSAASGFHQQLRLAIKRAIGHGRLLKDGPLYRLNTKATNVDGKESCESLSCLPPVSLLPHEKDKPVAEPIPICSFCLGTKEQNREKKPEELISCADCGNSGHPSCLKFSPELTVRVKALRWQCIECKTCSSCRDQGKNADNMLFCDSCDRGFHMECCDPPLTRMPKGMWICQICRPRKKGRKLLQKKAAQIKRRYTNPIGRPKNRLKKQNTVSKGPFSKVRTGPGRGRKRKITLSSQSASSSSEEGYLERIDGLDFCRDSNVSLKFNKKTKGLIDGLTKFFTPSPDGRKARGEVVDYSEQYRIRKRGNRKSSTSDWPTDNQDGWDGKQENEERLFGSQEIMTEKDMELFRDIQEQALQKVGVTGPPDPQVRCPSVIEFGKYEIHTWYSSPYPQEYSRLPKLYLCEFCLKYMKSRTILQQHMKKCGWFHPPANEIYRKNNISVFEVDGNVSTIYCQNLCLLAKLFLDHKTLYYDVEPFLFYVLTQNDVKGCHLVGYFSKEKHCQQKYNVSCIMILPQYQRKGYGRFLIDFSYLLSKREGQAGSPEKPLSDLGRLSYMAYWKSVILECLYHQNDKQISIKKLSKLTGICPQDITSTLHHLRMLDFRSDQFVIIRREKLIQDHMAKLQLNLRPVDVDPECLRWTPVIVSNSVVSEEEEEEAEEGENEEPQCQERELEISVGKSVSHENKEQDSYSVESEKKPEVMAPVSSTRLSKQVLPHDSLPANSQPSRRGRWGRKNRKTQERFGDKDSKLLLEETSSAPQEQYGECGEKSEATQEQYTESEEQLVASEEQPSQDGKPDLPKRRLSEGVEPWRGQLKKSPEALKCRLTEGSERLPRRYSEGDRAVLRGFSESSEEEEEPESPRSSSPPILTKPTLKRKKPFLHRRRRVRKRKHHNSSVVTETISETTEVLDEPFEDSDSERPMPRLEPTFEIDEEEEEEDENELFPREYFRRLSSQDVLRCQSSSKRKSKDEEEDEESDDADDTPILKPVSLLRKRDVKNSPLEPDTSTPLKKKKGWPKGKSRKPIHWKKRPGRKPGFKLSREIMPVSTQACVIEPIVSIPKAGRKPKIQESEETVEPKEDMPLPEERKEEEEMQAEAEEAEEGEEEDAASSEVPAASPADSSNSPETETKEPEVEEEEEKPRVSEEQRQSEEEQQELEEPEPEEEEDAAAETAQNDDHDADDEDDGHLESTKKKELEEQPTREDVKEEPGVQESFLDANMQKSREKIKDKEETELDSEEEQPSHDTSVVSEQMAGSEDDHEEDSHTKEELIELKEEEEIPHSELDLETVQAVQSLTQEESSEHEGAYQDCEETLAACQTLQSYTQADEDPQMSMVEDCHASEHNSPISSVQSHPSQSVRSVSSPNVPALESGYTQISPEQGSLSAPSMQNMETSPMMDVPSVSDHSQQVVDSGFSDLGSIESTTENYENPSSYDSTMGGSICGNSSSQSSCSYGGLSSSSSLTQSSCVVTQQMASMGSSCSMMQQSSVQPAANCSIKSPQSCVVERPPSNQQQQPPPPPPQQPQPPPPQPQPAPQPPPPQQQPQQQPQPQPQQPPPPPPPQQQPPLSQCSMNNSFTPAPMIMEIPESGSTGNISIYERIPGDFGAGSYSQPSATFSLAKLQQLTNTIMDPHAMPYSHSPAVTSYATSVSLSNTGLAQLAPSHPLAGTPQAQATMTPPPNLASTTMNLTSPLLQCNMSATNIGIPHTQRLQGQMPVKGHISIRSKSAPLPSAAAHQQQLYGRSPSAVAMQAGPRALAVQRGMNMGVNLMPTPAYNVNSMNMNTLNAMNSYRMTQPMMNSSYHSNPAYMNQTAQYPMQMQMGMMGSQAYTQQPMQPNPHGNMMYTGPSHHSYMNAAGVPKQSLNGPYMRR
Source text: Kat6a inhibitory activities of the compounds described in the present invention were quantified using a Fluorescence Resonance Energy Transfer (TR-FRET) assay which measures acetylation of a synthetic, biotinylated Histone-H4-derived peptide by the enzyme.Recombinant human His-tagged Kat6a protein (amino acids 194-810), was purified in-house from Baculovirus- infected insect cells (Sf9). Histone H4 peptide (amino acids 1-24, […]-VLRD-K(Btn)-amide), which was used as substrate, was synthesized by Biosyntan GmbH, Berlin, Germany. Acetyl Coenzyme A was purchased from Sigma-Aldrich (#A-2056).Kat6a was incubated for 60 mins at 22°C in the presence of different concentrations of test substances (0 μM, and within the range 0.01 - 20 μM) in assay buffer [25 mM Tris/HCl pH 8, 1 mM EGTA, 2.5 mM Glutathion, 0.02% Chicken Albumin, 0.05% Pluronic F127, 25 mM NaCl, 220 nM H4 peptide and 600 nM Acetyl Coenzyme A].The reaction was stopped by addition of Detection Solution (25mM HEPES pH 7.5, 0.1% BSA, 22nM SAXL665 (Cisbio #610SAXLE), 100μM Anacardic Acid (Enzo #ALX-270-381), 1nM Anti-Histone H4 (ACETYL K8) Antibody (ABCAM #AB15823) and 0.5 nM Anti-Rabbit IgG Eu (Perkin Elmer #AD0083).

Histone acetyltransferase KAT6B, sequence (Q8WYB5 whole entry, the tested form may be a part): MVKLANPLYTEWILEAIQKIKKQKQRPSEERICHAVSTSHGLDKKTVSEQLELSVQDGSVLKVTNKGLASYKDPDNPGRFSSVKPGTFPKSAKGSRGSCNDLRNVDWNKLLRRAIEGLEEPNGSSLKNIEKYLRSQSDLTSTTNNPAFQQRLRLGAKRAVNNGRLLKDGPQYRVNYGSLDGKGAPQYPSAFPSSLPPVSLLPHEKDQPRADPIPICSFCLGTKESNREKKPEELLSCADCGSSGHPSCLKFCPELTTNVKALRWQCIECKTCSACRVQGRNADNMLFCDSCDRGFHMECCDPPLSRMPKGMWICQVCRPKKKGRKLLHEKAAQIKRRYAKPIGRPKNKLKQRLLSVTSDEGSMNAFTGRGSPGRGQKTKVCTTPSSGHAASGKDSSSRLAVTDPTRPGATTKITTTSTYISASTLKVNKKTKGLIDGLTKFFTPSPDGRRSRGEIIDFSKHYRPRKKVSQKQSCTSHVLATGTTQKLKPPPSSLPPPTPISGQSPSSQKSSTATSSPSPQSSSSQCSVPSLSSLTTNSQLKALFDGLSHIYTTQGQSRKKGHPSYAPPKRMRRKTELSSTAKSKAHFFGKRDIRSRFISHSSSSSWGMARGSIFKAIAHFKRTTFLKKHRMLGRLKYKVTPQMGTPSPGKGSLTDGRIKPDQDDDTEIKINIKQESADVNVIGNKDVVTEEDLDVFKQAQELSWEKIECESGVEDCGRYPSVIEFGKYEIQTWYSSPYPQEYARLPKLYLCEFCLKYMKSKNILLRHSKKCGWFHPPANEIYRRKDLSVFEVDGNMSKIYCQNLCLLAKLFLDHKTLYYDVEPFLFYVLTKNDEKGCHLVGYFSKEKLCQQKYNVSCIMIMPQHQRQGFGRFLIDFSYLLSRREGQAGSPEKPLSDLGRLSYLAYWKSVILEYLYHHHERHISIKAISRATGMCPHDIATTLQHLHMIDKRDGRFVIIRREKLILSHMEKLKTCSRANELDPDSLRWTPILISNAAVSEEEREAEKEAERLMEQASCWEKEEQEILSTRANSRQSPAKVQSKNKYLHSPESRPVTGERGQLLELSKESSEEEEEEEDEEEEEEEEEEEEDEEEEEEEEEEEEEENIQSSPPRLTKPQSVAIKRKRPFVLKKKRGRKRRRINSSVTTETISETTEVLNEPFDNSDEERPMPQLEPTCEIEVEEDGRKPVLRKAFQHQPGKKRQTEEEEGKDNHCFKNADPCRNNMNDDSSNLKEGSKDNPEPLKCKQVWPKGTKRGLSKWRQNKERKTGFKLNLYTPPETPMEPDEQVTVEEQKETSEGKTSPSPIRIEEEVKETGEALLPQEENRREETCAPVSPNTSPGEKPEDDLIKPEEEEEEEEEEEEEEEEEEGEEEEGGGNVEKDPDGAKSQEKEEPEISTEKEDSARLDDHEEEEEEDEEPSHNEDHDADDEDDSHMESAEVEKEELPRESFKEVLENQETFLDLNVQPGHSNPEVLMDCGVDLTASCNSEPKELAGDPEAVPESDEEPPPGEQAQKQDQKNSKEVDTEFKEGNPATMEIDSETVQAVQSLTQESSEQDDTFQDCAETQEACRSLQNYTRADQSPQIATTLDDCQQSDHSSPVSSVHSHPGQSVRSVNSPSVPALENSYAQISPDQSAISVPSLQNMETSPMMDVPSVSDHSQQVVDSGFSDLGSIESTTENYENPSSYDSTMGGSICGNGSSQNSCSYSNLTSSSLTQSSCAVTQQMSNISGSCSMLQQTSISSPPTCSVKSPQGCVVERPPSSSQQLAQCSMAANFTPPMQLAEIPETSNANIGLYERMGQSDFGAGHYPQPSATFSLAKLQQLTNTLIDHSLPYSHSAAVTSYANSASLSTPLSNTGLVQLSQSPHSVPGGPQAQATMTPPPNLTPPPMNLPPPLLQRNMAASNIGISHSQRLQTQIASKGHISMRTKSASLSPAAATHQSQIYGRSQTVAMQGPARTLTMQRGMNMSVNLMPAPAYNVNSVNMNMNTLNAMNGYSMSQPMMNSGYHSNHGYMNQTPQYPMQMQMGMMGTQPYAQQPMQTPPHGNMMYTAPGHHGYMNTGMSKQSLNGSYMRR

| Structure (SMILES) | IC50 [1] [nM] | IC50 [2] [nM] |
| --- | --- | --- |
| O=C(NS(=O)(=O)c1ccccc1-c1ccccc1)c1cc2ccc(-c3cccnc3)cc2o1 [WO2022081842, Example 4] | > 20000 |  |
| O=C(O)c1ccc2cc(C(=O)NS(=O)(=O)c3ccccc3-c3ccccc3)oc2c1 [WO2022081842, Example 5] | > 20000 |  |
| CCOc1ccccc1S(=O)(=O)NC(=O)c1cc2c(F)cc(C3CC3)cc2o1 [WO2022081842, Example 25] | 28 |  |
| O=C(NS(=O)(=O)c1ccccc1-c1ccccc1)c1cc2c(F)cc(C3CC3)cc2o1 [WO2022081842, Example 38] |  | 17 |
| CCOc1ccccc1S(=O)(=O)NC(=O)c1cc2c(OC(F)F)cc(C3CC3)cc2o1 [WO2022081842, Example 49] |  | 29 |
| CCOc1ccccc1S(=O)(=O)NC(=O)c1cc2c(C(F)(F)F)cc(C3CC3)cc2o1 [WO2022081842, Example 51] |  | 26 |
| CCOc1ccccc1S(=O)(=O)NC(=O)c1cc2c(-n3ccnc3)cc(C3CC3)cc2o1 [WO2022081842, Example 58] |  | 40 |
| CC(C)(C)c1ccc(OCc2ccccc2)c(S(=O)(=O)NC(=O)c2cc3c(F)cc(C4CC4)cc3o2)c1 [WO2022081842, Example 60] | 45 |  |

Now from value to molecule:

| IC50 [1] [nM] | IC50 [2] [nM] | Structure (SMILES) |
| --- | --- | --- |
| > 20000 |  | CN(C)C(=O)c1ccc2cc(C(=O)NS(=O)(=O)c3ccccc3-c3ccccc3)oc2c1 [WO2022081842, Example 8] |
| 23 |  | Cc1ccc2cccc(S(=O)(=O)NC(=O)c3cc4c(F)cc(C5CC5)cc4o3)c2n1 [WO2022081842, Example 22] |
| 155 | 215 | C=C(C)c1ccc2cc(C(=O)NS(=O)(=O)c3ccccc3-c3ccccc3)oc2c1 [WO2022081842, Example 23] |
| 5250 | 611 | CC(C)c1ccc2cc(C(=O)NS(=O)(=O)c3ccc(Cl)cc3Cl)oc2c1 [WO2022081842, Example 57] |
